Test results taken from ChEMBL document CHEMBL1127219, “A convergent synthesis of 4-(2-benzothiazoyl)piperidines with antihistamic activity” (Bioorg Med Chem Lett, 1993).

What was measured:
Cavia porcellus = species on record: Cavia porcellus; experiment: Concentration required to antagonize the histamine induced contractile response of guinea pig ileum; type: functional; details: read-out: pA2 (converted)
[1] = Dose causing 50% death of the population when tested in mice; type: ADME; details: mouse, in vivo

| SMILES | Kb (Cavia porcellus) [nM] | LD50 [1] [mg/kg] |
| --- | --- | --- |
| COc1cccc(CN2CCC(C(=O)c3nc4ccccc4s3)CC2)c1 | 50.1 | 400 |
| COc1ccc(OCCCN2CCC(C(=O)c3nc4ccccc4s3)CC2)cc1 | 5.01 | > 400 |
| O=C(c1nc2ccccc2s1)C1CCN(CCc2ccc(F)cc2)CC1 | 3.98 | > 400 |
| COc1ccc(CCN2CCC(C(O)c3nc4ccccc4s3)CC2)cc1 (centres undefined) | 6.31 | – |
| COC(=O)CN1CCC(C(=O)c2nc3ccccc3s2)CC1 | ~100 | > 400 |
| COC(=O)c1ccc(OCCCN2CCC(C(=O)c3nc4ccccc4s3)CC2)cc1 | 2.51 | > 400 |
| CC(=O)Nc1ccc(OCCCN2CCC(C(=O)c3nc4ccccc4s3)CC2)cc1 | 7.94 | > 400 |
| COc1ccc(CCN2CCC(C(=O)c3nc4ccccc4s3)CC2)cc1 | 0.501 | > 400 |
| O=C(c1nc2ccccc2s1)C1CCN(CCc2ccccc2)CC1 | 15.8 | > 400 |
| C=C(c1nc2ccccc2s1)C1CCN(CCc2ccc(OC)cc2)CC1 | 1.58 | – |
| COc1ccc(CCN2CCC(C(O)(c3ccccc3)c3nc4ccccc4s3)CC2)cc1 (centres undefined) | 39.8 | – |
